Read-outs that look alike come from different tables or passages of the source.
Tests used:
[1] = system: DU4475 cells, shRNA targeting WFS1; assay: Cell viability, DU4475 WFS1 shRNA; format: cell-based
Procedure: (§1) Colo-205 (ATCC, catalog #CCL-222), HepG2 (ATCC, catalog #HB-8065), CFPAC1 (ATCC, catalog #CRL-1918), or DU4475 (ATCC, catalog #HTB-123) cells are plated in 10 mL of complete DMEM cell culture media [DMEM (Life Technologies, product #11960-051) media supplemented with 10% FBS (Hyclone, catalog #SH30071.03), antimycotic/antibiotic (Life Technologies, product #15240-062), and Glutamax (Life Technologies, product #35050-061)] at 3×10^6 cells per 10 cm cell culture plate (Corning, product #430167). Cells are allowed to attach and grow overnight at 37° C. in humidified 5% CO2. Cells are transduced by addition of 1×10^6 infectious units of lentivirus encoding WFS1 shRNA (Santa Cruz Biotech, catalog #sc-61804-V) or a non-targeting control shRNA (Santa Cruz Biotech, catalog #sc-108080) and 10 ug/ml of Polybrene® (Santa Cruz Biotech, catalog #sc-134220) to the cell culture media. After 48 hours transduced cells are selected by the addition of 1 microgram/mL of puromycin (Life Technologies, catalog #A1113803) to the cell culture media.

[2] = system: global gene expression in HepG2 cells; assay: Global gene expression changes in HepG2 vs WFS1 depleted cells; format: cell-based; conditions: HepG2, 6 hours of exposure
Source text: (§2) In contrast WFS1 depletion had no effect on thapsigargin induced changes in global gene expression (FIG. 7.)

Colo-205 Control shRNA = assay: TCF reporter activity, Colo-205 Control shRNA; format: cell-based
Procedure: as §1

[3] = system: HepG2 cells, shRNA targeting WFS1; assay: Cell viability, HepG2 WFS1 shRNA; format: cell-based
Procedure: as §1

DU4475 WFS1 shRNA = assay: TCF reporter activity, DU4475 WFS1 shRNA; format: cell-based
Procedure: as §1

[4] = system: HepG2 cells with CRISPR/Cas9 mediated WFS1 knockout (KO); assay: Calcium flux in parental HepG2 vs HepG2 WFS1 knockout cells; format: cell-based; conditions: 30 minutes after compound addition
Source text: A double cleavage strategy was employed to remove large fragments from the WFS1 locus. Suitable target sites in WFS1 exon 8 were first selected using CRISPR design software to rank suitable target sites and computationally predict off-target sites for each intended target. Six top guide RNA sequences are identified and screened for activity using the Surveyor Mutation Detection Kit (Integrated DNA Technologies). Then, the best 2 guide RNAs were cloned into GeneArt OFP CRISPR nuclease vectors (Thermofisher, Cat #A21174) separately and co-transfected into HepG2 cells using nucleofection (4D Nucleofector X, Lonza). Cells were sorted by FACS 48 hrs later to enrich for the OFP positive cell population. The OFP positive cell population were plated into 96-well plates at 0.5-5 cells/well to isolate clonal cell lines. After allowing cells to expand for 2-3 weeks, plates were inspected for presence of colonies. When colonies became more than 70% confluent, they were dissociated with trypsin and were further expanded. Cell clones with homozygous double cleavage of WFS1 exon 8 were detected with PCR and confirmed with DNA sequencing.

Colo-205 WFS1 shRNA = assay: TCF reporter activity, Colo-205 WFS1 shRNA; format: cell-based
Procedure: as §1

[5] = system: DU4475 cells, non-targeting control shRNA; assay: Cell viability, DU4475 control shRNA; format: cell-based
Procedure: as §1

[6] = system: ER stress marker proteins XBP1(s) and ATF4; assay: ER stress marker immunoblot in parental HepG2 vs WFS1 KO cells; format: cell-based; conditions: 6 hours, immunoblotting
Source text: as §2

[7] = system: Colo-205 cells, shRNA targeting WFS1; assay: Cell viability, Colo-205 WFS1 shRNA; format: cell-based; conditions: for IC50: Colo-205 WFS1 shRNA; for increase in the IC50 in reducing cell viability on WFS1 knockdown: DU4475, Colo-205 and HepG2 cells, WFS1 shRNA vs control cells
Procedure: as §1

[8] = system: Colo-205 cells, non-targeting control shRNA; assay: Cell viability, Colo-205 control shRNA; format: cell-based
Procedure: as §1

[9] = system: HepG2 cells, non-targeting control shRNA; assay: Cell viability, HepG2 control shRNA; format: cell-based
Procedure: as §1

WFS1 = WFS1 (Homo sapiens (Human), UniProt O76024); assay: Binding of radiolabeled Compound 136 to cellular membrane extracts
Procedure: Cell pellets were re-suspended in 15 times packed cellular volume in 4° C. hypotonic lysis buffer (10 mM HEPES, pH 7.5 containing 1×Protease inhibitor, 0.5 mM EDTA and 2 mM DTT). Re-suspended cells were homogenized with 6-8 strokes in a dounce homogenizer kept on ice. Lysates were centrifuged at 500×G for 15 minutes at 4° C. without brake to decelerate rotor. Following centrifugation, remove the supernatant to a fresh tube and place on ice (Supernatant 1). Repeat the above steps on the lysed cell pellet using 0.5 the original volume of hypotonic lysis buffer and remove the 500× G supernatant (Supernatant 2) and combine with Supernatant 1. Transfer the combined supernatants to a 45-Ti ultracentrifuge tube and centrifuge at 100,000× G for 30 minutes. Following ultracentrifugation, carefully remove the supernatant and discard. Resuspend the 100,000× G pellet in cold resuspension buffer (10 mM HEPES, pH 7.5, 300 mM NaCl containing 1× Protease inhibitor, 1× EDTA and 2 mM DTT). […]
The binding affinities of compounds were determined by measuring the competitive displacement of a tritiated Compound 136 probe from purified HEK293 membranes over-expressing WFS-1. […]
The binding affinity of radiolabeled Compound 136 to cell membranes derived from cells expressing different levels of WFS1 as determined by immunoblotting is shown in FIG. 8. […]

[10] = system: Hek293 cells over-expressing WFS1; assay: Calcium flux in Hek293 cells over-expressing WFS1 vs empty vector; format: cell-based; conditions: induction of calcium flux
Source text: To determine the effect of WFS1 over-expression on compound mediated effects on calcium flux and cell viability, Hek293 cells were transduced with either an empty retroviral vector or a retroviral vector expressing full length WFS1 cDNA. Hek293 cells transduced with the WFS1 encoding retrovirus expressed greater than 100 times the amount of WFS1 protein than empty vector Hek293 cells (FIG. 3).

DU4475 Control shRNA = assay: TCF reporter activity, DU4475 Control shRNA; format: cell-based
Procedure: as §1

Sequence of WFS1 (O76024 whole entry): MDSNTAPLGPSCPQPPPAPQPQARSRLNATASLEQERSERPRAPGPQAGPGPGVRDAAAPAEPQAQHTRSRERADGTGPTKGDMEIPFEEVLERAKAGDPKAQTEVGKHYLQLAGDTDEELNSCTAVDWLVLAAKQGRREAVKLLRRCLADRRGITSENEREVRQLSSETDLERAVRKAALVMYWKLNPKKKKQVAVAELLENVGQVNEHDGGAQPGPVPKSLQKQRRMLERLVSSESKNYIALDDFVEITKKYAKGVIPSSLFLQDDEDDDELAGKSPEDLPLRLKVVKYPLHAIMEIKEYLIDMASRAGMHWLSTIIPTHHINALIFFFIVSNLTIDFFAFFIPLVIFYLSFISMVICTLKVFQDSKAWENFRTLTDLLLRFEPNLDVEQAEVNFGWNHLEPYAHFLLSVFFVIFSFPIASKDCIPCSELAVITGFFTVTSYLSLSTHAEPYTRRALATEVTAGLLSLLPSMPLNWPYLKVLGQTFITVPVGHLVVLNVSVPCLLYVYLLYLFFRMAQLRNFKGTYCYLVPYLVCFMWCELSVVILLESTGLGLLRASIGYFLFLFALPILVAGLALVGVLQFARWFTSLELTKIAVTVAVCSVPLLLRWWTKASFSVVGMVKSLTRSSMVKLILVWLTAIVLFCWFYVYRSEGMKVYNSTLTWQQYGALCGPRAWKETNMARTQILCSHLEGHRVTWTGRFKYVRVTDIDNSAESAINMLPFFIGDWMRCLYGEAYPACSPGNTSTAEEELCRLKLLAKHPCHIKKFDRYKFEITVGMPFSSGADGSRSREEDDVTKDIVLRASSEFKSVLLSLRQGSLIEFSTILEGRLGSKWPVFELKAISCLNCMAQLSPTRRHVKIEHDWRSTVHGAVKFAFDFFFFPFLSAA

`COc1c(F)cc(Cn2cc(CNc3nc(C)c4c(n3)N(C)[C@@H](C)C(=O)N4)cn2)cc1F` [Compound 46, (7S)-2-(((1-(3,5-difluoro-4-methoxybenzyl)-1H-pyrazol-4-yl)methyl)amino)-4,7,8-trimethyl-7,8-dihydropteridin-6(5H)-one] gave a melting point of 136 to 138 °C.
With `Cc1nc(NCc2cnn(Cc3ccc(C(F)(F)F)nc3)c2)nc2c1NC(=O)[C@H](C)N2C` [Compound 136, (7S)-4,7,8-trimethyl-2-(((1-((6-(trifluoromethyl)pyridin-3-yl)methyl)-111-pyrazol-4-yl)methyl)amino)-7,8-dihydropteridin-6(5H)-one] the IC50 [1] was 6.1 µM, the “effect of WFS1 depletion on changes in global gene expression” value [2] was “prevented Compound 136 from causing changes” and the IC50 (Colo-205 Control shRNA) was 0.1 µM. For the same molecule, the IC50 [3] was 2.2 µM, the IC50 (DU4475 WFS1 shRNA) was 0.7 µM and the “effect of WFS1 depletion on ability to induce calcium flux” value [4] was “completely eliminated”. For the same molecule, the IC50 (Colo-205 WFS1 shRNA) was 0.7 µM, the IC50 [5] was 0.08 µM and the “effect of WFS1 depletion on induction of XBP1(s) and ATF4” value [6] was “prevents the induction”. For the same molecule, the IC50 [7] was > 9 µM, the “increase in the IC50 in reducing cell viability on WFS1 knockdown” value [7] was “greater than 50 fold” and the IC50 [8] was 0.05 µM. The IC50 [9] was 0.26 µM, the “binding to cellular membrane extracts which over-express WFS1” value (WFS1; radiolabeled (tritiated) Compound 136) was “specifically bind” and the “Bmax vs level of WFS1 protein in cellular membrane” value (WFS1; radiolabeled Compound 136, cells expressing different levels of WFS1) was “correlates with the level of WFS1 protein”. For the same molecule, the “reduction in the EC50 on over-expression of WFS1” value [10] was “approximately 10 fold” and the IC50 (DU4475 Control shRNA) was 0.09 µM.
Molecule `Cc1nc(N[C@H]2C[C@H](Oc3cc(F)c(F)c(F)c3)C2)nc2c1N(C)C(=O)[C@H](C)N2C` [Compound 253, (7S)-4,5,7,8-tetramethyl-2-((trans-3-(3,4,5-trifluorophenoxy)cyclobutyl)amino)-7,8-dihydropteridin-6(5H)-one] has an IC50 ([1]; Homo sapiens, DU-4475) of 7.8 µM, an IC50 (Colo-205 Control shRNA; Homo sapiens) of 0.2 µM and an IC50 ([3]; Homo sapiens) of 17 µM. It also gave an IC50 (DU4475 WFS1 shRNA; Homo sapiens, DU-4475) of 1 µM, an IC50 (Colo-205 WFS1 shRNA; Homo sapiens) of 1.5 µM and an IC50 ([5]; Homo sapiens, DU-4475) of 0.1 µM. For the same molecule, the “increase in the IC50 in reducing cell viability on WFS1 knockdown” value [7] was “greater than 50 fold”, the IC50 ([7]; Homo sapiens) was > 9 µM and the IC50 ([8]; Homo sapiens) was 0.14 µM. The IC50 ([9]; Homo sapiens) was 0.2 µM and the IC50 (DU4475 Control shRNA; Homo sapiens, DU-4475) was 0.2 µM.

Reference: patent publication US20230312587A1, “PTERIDINONE COMPOUNDS AND USES THEREOF” (Vertex Pharmaceutical Incorporated, priority 2018, published 2023)
